This note sets out measurements from paper PMC10618743 (Cancer Discovery, 2023).

The subject of data set [1] is HCC1954 breast cancer xenograft. Nature of the data set: HCC1954 xenograft efficacy study. The following applies: Alpelisib 50 mg/kg QD, Day 28. It is filed as in vivo, mouse.
The test system of data set [2] is NCI-H1048 lung carcinoma xenograft. The data set can be described thus: NCI-H1048 xenograft efficacy study. The data set is classed as in vivo, mouse. The following applies: Alpelisib 50 mg/kg QD, Day 23.
The subject of data set [3] is pAKT (S473) in T47D cells. Nature of the data set: pAKT (S473) HTRF. The data set is classed as cell-based. The following applies: Homo sapiens, 1 h, read-out: pAKT HTRF GMean IC50 (95% CI). Here is the method: (§1) A 384-well phospho-AKT (S473) HTRF (Homogenous Time-Resolve Fluorescence; PerkinElmer, #64AKSPEH) assay was used for target engagement. Each well was seeded with cell numbers indicated in Supplementary Table S3 in a volume of 12.5 μL in complete, phenol red-free media and then treated for 1 hour at 37°C with 5% CO2 before reading on a PHERAstar plate reader.
In general terms: TR-FRET usually uses a lanthanide donor and a delayed reading to cut background.

The test system of data set [4] is pAKT (S473) in SKBR3 cells. The data set can be described thus: pAKT (S473) HTRF. It is filed as cell-based. The conditions noted are these: Homo sapiens, SK-BR-3; SKBR3, WT PI3Kα; 1 hour; read-out: pAKT HTRF GMean IC50 (95% CI). The method, then:
as §1

Data set [5] deals with pAKT (S473) in HCC1954 cells. Nature of the data set: pAKT (S473) HTRF. The conditions noted are these: Homo sapiens; HCC1954, H1047R; 1 hour; read-out: pAKT HTRF GMean IC50 (95% CI). It is filed as cell-based. The method, then: as §1
Data set [6] relates to pAKT (S473) in EFM19 cells. The data set can be described thus: pAKT (S473) HTRF. The data set is classed as cell-based. The conditions noted are these: Homo sapiens, EFM-19; EFM19, H1047L; 1 hour; read-out: pAKT HTRF GMean IC50 (95% CI). Here is the method: as §1
The subject of data set [7] is pAKT (S473) in CAL148 cells. Nature of the data set: pAKT (S473) HTRF. It is filed as cell-based. The conditions noted are these: Homo sapiens, CAL-148; CAL148, H1047R + D350N; 1 hour; read-out: pAKT HTRF GMean IC50 (95% CI). Here is the method:
as §1

The subject of data set [8] is pAKT (S473) in NCIH1048 cells. Nature of the data set: pAKT (S473) HTRF. It is filed as cell-based. The conditions noted are these: Homo sapiens, NCI-H1048; NCIH1048, H1047R + K111R; 1 hour; read-out: pAKT HTRF GMean IC50 (95% CI). The method, then:
as §1

Data set [9] concerns pAKT (S473) in DETROIT562 cells. Nature of the data set: pAKT (S473) HTRF. It is filed as cell-based. The conditions noted are these: Homo sapiens, Detroit 562; DETROIT562, H1047R; 1 hour; read-out: pAKT HTRF GMean IC50 (95% CI). Here is the method: as §1
Data set [10] deals with pAKT (S473) in BT20 cells. Nature of the data set: pAKT (S473) HTRF. It is filed as cell-based. The conditions noted are these: Homo sapiens, BT-20; BT20, H1047R + P539R; 1 hour; read-out: pAKT HTRF GMean IC50 (95% CI). Here is the method:
as §1

A further data set can be described thus: Plasma exposure in mice. It is filed as in vivo, mouse.
Data set [11] deals with CAL-33 (H1047R PI3Kα) HNSCC xenograft. The data set can be described thus: CAL-33 xenograft efficacy study. The data set is classed as in vivo, mouse. The following applies: Alpelisib 50 mg/kg QD, Day 28.
Data set [12] concerns pAKT (S473) in panel of human tumor cell lines harboring PI3Kα kinase-domain mutations and SKBR3. Nature of the data set: pAKT (S473) HTRF, human tumor cell line panel. The data set is classed as cell-based. The conditions noted are these: SK-BR-3, 1 hour treatment, read-out: pAKT IC50 values across the panel of cell lines. The method, then:
as §1

Turning to `Cc1nc(NC(=O)N2CCC[C@H]2C(N)=O)sc1-c1ccnc(C(C)(C)C(F)(F)F)c1` [alpelisib], the “TGI (%)” value is on record as 77% in [1], 87% in [2] and 79% in [11]. Besides, the concentration for half-maximal inhibition (IC50) – broadly, the point on the concentration scale where inhibition reaches its midpoint – came out at 58 nM in [3]; 41 nM in [4]; 256 nM in data set [5]; 43 nM in [6]; 268 nM in data set [7]; 28 nM in data set [8]. In addition, the IC50 was 125 nM in [9], 136 nM in data set [10] and 28 to 268 nM in data set [12]. Besides, the “mouse exposure over exposure of maximum approved human dose” value in the data set “Plasma exposure in mice” (50 mg/kg q.d. in mice) is “approximately 2 fold”. In the data set “Plasma exposure in mice” (mouse, plasma, oral, mice, 50 mg/kg q.d.), the exposure (AUC) – broadly, the area under the concentration-time curve, a measure of exposure – is approximately 75000 ng·h/mL.
